Assay results as given in PubChem BioAssay (NCI).
Where “and” joins values, the source holds several entries; their conditions need not be identical. Identical values can stand only once.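 A five-concentration, 48-hour dose response in 96-well plates underlies each endpoint, interpolated linearly between surrounding concentrations. GI50 marks 50% less growth. The concentration for full growth arrest is given as TGI.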

tested on: UO-31 renal; test: NCI tumour cell line growth inhibition, 48 h

**Q.** How did the TGI turn out when `O=[N+]([O-])c1cccc(/C=N\NS(=O)(=O)c2ccc(Cl)cc2)c1O` was run?
**A.** > 100 µM

**Q.** With `CC1=C(C(=O)Nc2ccccc2C)C(c2ccc(Cl)c(Cl)c2)C(C(=O)Nc2ccccc2C)=C(C)N1` as the molecule, how does the TGI read?
**A.** > 100 µM

**Q.** Which TGI does the source give for `CCCCOC(=O)NC(=O)c1cn(CCCOC(=O)CCCCCCCCC(=O)OCCCn2cc(C(=O)NC(=O)OCCCC)c(=O)[nH]c2=O)c(=O)[nH]c1=O` here?
**A.** > 100 µM

**Q.** How did the TGI turn out when `Cc1[nH]c2ccccc2c1C1Cc2ccccc2N1C(=O)/C=C\C(=O)O` (stereo unspecified) was run?
**A.** > 100 µM

**Q.** Which results are given for `CCOC(=O)c1cc(C#N)c(=O)n(/N=C(\C)c2ccncc2)c1O`?
**A.** GI50: > 100 µM; TGI: > 100 µM

tested on: MALME-3M melanoma; test: NCI tumour cell line growth inhibition, 48 h

**Q.** Which GI50 does the source give for `COc1cc2c(cc1OCCCOc1cc3c(cc1OC)C(=O)N1C[C@H](F)C[C@H]1C=N3)N=C[C@@H]1C[C@@H](F)CN1C2=O` here?
**A.** 4.28 µM

**Q.** What about the TGI of the same molecule?
**A.** 18.1 µM

**Q.** How did the TGI turn out when `c1ccc2c(c1)CCC/C2=N\OCC1CO1` (stereo unspecified) was run?
**A.** > 100 µM

**Q.** With `CC/C(C)=C1\CCC(CN2CCOCC2)C1=O` (stereo unspecified) as the molecule, how does the TGI read?
**A.** 33 µM

**Q.** With `COC(=O)C1C(C(=O)OC)C2(OC)c3ccccc3-c3ccccc3C12` (stereo unspecified) as the molecule, how does the TGI read?
**A.** > 100 µM

**Q.** Which TGI does the source give for `O=C1OC(CC(=O)c2ccc(Cl)c(Cl)c2)C(Cl)=C1Cl` (stereo unspecified) here?
**A.** > 100 µM

**Q.** Which TGI does the source give for `CC(=O)c1cccc(N2COC(C)(C)c3nc4ccccc4n3C2)c1` here?
**A.** > 100 µM

**Q.** For `O=[N+]([O-])c1cccc(C2N3CCCCC3[C@@H]3c4[nH]c5ccccc5c4CCN23)c1` (stereo partly specified), which TGI is on record?
**A.** 18.9 µM

**Q.** `Cc1c[nH]c2c(O)cc3c(c12)[C@H](CCl)CN3C(=O)c1cc2cc(NC(=O)Nc3ccc4[nH]c(C(=O)N5C[C@@H](CCl)c6c5cc(O)c5[nH]cc(C)c65)cc4c3)ccc2[nH]1` was tested. Which TGI did it give?
**A.** 34.2 µM and 0.0012 µg/mL

**Q.** For `CCOC(=O)NC(=O)c1cn(CC(=O)NCC(=O)NCC(=O)NCCCN2CCN(CCCNC(=O)CNC(=O)CNC(=O)Cn3cc(C(=O)NC(=O)OCC)c(=O)[nH]c3=O)CC2)c(=O)[nH]c1=O`, which TGI is on record?
**A.** > 100 µM

**Q.** With `O=S(=O)(N/N=C/c1ccc(/C=N/NS(=O)(=O)c2ccccc2)cc1)c1ccccc1` as the molecule, how does the TGI read?
**A.** > 100 µM

**Q.** For `CC[C@@H]1OC2(C)CC(S(=O)(=O)c3ccccc3O)CC1O2` (stereo partly specified), which TGI is on record?
**A.** > 100 µM

**Q.** What does the source list for `CCOC(=O)C(N)C[S][Sn]([CH3])([CH3])[Cl]` (stereo unspecified)?
**A.** GI50: > 100 µM; TGI: > 100 µM

**Q.** For `NNC(=O)/C(=C/c1ccc(Cl)c(Cl)c1)NC(=O)c1ccccc1`, which TGI is on record?
**A.** > 100 µM

**Q.** How did the TGI turn out when `CC(=O)OCC1OC(N2C(=O)C(=O)c3cc(C)ccc32)C(OC(C)=O)C(OC(C)=O)C1OC(C)=O` (stereo unspecified) was run?
**A.** > 100 µM

**Q.** With `O=C1c2ccccc2-c2cccc3ccc(Cc4ccc5ccccc5c4)c1c23` as the molecule, how does the TGI read?
**A.** > 100 µM

**Q.** Which TGI does the source give for `Nc1ccc(N(S(=O)(=O)c2ccccc2)S(=O)(=O)c2ccccc2)c(Cl)c1` here?
**A.** > 100 µM

**Q.** How did the TGI turn out when `CCCCc1c2c(nc3c1CCC/C3=C\c1ccccc1)C(=O)CCC2` was run?
**A.** 52 µM

**Q.** Which TGI does the source give for `COc1ccc([N+]2=NC(c3ccc([N+](=O)[O-])cc3)=NN(c3ccccc3)C2)cc1` here?
**A.** > 100 µM

**Q.** Which TGI does the source give for `C=CC1(C(=O)O)CCC(C(C)(C)C)CC1` (stereo unspecified) here?
**A.** > 100 µM

**Q.** With `NC(=O)C(=Cc1ccc(C(O)P(=O)(O)O)cc1)C(N)=O` (stereo unspecified) as the molecule, how does the TGI read?
**A.** > 100 µM

**Q.** How did the TGI turn out when `O=C(Nc1cc(Cl)c(Cl)cc1Cl)C(=O)C1C=CCS1(=O)=O` (stereo unspecified) was run?
**A.** > 100 µM

**Q.** With `CCNC(=O)CCN(C(=O)O)S(=O)(=O)c1ccc(NC(=O)c2ccccc2)cc1` as the molecule, how does the TGI read?
**A.** > 100 µM

**Q.** `CC1C[C@@]2(c3ccccc3)C(=O)CCC[C@H]2N1` (stereo partly specified) was tested. Which TGI did it give?
**A.** > 100 µM

**Q.** For `O=[N+]([O-])c1cccc(/C=N\NS(=O)(=O)c2ccc(Cl)cc2)c1O`, which TGI is on record?
**A.** > 100 µM

**Q.** With `CC1=C(C(=O)Nc2ccccc2C)C(c2ccc(Cl)c(Cl)c2)C(C(=O)Nc2ccccc2C)=C(C)N1` as the molecule, how does the TGI read?
**A.** 52.3 µM

**Q.** `CCCCOC(=O)NC(=O)c1cn(CCCOC(=O)CCCCCCCCC(=O)OCCCn2cc(C(=O)NC(=O)OCCCC)c(=O)[nH]c2=O)c(=O)[nH]c1=O` was tested. Which TGI did it give?
**A.** > 100 µM

**Q.** Which TGI does the source give for `Cc1[nH]c2ccccc2c1C1Cc2ccccc2N1C(=O)/C=C\C(=O)O` (stereo unspecified) here?
**A.** > 100 µM

**Q.** How did the GI50 turn out when `CCOC(=O)c1cc(C#N)c(=O)n(/N=C(\C)c2ccncc2)c1O` was run?
**A.** > 100 µM

**Q.** What about the TGI of the same molecule?
**A.** > 100 µM

tested on: SF-295 CNS; test: NCI tumour cell line growth inhibition, 48 h

**Q.** Which GI50 does the source give for `COc1cc2c(cc1OCCCOc1cc3c(cc1OC)C(=O)N1C[C@H](F)C[C@H]1C=N3)N=C[C@@H]1C[C@@H](F)CN1C2=O` here?
**A.** 5.36 µM

**Q.** What about the TGI of the same molecule?
**A.** 18.1 µM

**Q.** `c1ccc2c(c1)CCC/C2=N\OCC1CO1` (stereo unspecified) was tested. Which TGI did it give?
**A.** > 100 µM

**Q.** How did the TGI turn out when `CC/C(C)=C1\CCC(CN2CCOCC2)C1=O` (stereo unspecified) was run?
**A.** > 100 µM

**Q.** Which TGI does the source give for `COC(=O)C1C(C(=O)OC)C2(OC)c3ccccc3-c3ccccc3C12` (stereo unspecified) here?
**A.** > 100 µM

**Q.** Which TGI does the source give for `O=C1OC(CC(=O)c2ccc(Cl)c(Cl)c2)C(Cl)=C1Cl` (stereo unspecified) here?
**A.** > 100 µM

**Q.** For `CC(=O)c1cccc(N2COC(C)(C)c3nc4ccccc4n3C2)c1`, which TGI is on record?
**A.** > 100 µM

**Q.** How did the TGI turn out when `O=[N+]([O-])c1cccc(C2N3CCCCC3[C@@H]3c4[nH]c5ccccc5c4CCN23)c1` (stereo partly specified) was run?
**A.** 31.4 µM

**Q.** For `CCOC(=O)NC(=O)c1cn(CC(=O)NCC(=O)NCC(=O)NCCCN2CCN(CCCNC(=O)CNC(=O)CNC(=O)Cn3cc(C(=O)NC(=O)OCC)c(=O)[nH]c3=O)CC2)c(=O)[nH]c1=O`, which TGI is on record?
**A.** > 100 µM

**Q.** With `O=S(=O)(N/N=C/c1ccc(/C=N/NS(=O)(=O)c2ccccc2)cc1)c1ccccc1` as the molecule, how does the TGI read?
**A.** 45.6 µM

**Q.** For `CC[C@@H]1OC2(C)CC(S(=O)(=O)c3ccccc3O)CC1O2` (stereo partly specified), which TGI is on record?
**A.** > 100 µM

**Q.** Which GI50 does the source give for `CCOC(=O)C(N)C[S][Sn]([CH3])([CH3])[Cl]` (stereo unspecified) here?
**A.** > 100 µM

**Q.** What about the TGI of the same molecule?
**A.** > 100 µM

**Q.** How did the TGI turn out when `NNC(=O)/C(=C/c1ccc(Cl)c(Cl)c1)NC(=O)c1ccccc1` was run?
**A.** > 100 µM

**Q.** Which TGI does the source give for `CC(=O)OCC1OC(N2C(=O)C(=O)c3cc(C)ccc32)C(OC(C)=O)C(OC(C)=O)C1OC(C)=O` (stereo unspecified) here?
**A.** > 100 µM

**Q.** Which TGI does the source give for `O=C1c2ccccc2-c2cccc3ccc(Cc4ccc5ccccc5c4)c1c23` here?
**A.** > 100 µM

**Q.** `COc1cc(Cl)c2c3c(c(C(C)=O)oc13)CCC2` was tested. Which TGI did it give?
**A.** > 100 µM

**Q.** `Nc1ccc(N(S(=O)(=O)c2ccccc2)S(=O)(=O)c2ccccc2)c(Cl)c1` was tested. Which TGI did it give?
**A.** > 100 µM

**Q.** With `CCCCc1c2c(nc3c1CCC/C3=C\c1ccccc1)C(=O)CCC2` as the molecule, how does the TGI read?
**A.** 40.3 µM

**Q.** Which TGI does the source give for `COc1ccc([N+]2=NC(c3ccc([N+](=O)[O-])cc3)=NN(c3ccccc3)C2)cc1` here?
**A.** > 100 µM

**Q.** Which TGI does the source give for `C=CC1(C(=O)O)CCC(C(C)(C)C)CC1` (stereo unspecified) here?
**A.** > 100 µM

**Q.** `NC(=O)C(=Cc1ccc(C(O)P(=O)(O)O)cc1)C(N)=O` (stereo unspecified) was tested. Which TGI did it give?
**A.** > 100 µM

**Q.** What does the source list for `CC(C)(C#N)c1cc(Cn2cncn2)cc(C(C)(C)C#N)c1`?
**A.** GI50: 299 µM; TGI: > 10000 µM

**Q.** With `O=C(Nc1cc(Cl)c(Cl)cc1Cl)C(=O)C1C=CCS1(=O)=O` (stereo unspecified) as the molecule, how does the TGI read?
**A.** > 100 µM

**Q.** With `CCNC(=O)CCN(C(=O)O)S(=O)(=O)c1ccc(NC(=O)c2ccccc2)cc1` as the molecule, how does the TGI read?
**A.** > 100 µM

**Q.** How did the TGI turn out when `O=C(/C=C/c1ccc([N+](=O)[O-])o1)N1CCN(Cc2ccccc2)CC1` was run?
**A.** 29.2 µM

**Q.** Which TGI does the source give for `CC1C[C@@]2(c3ccccc3)C(=O)CCC[C@H]2N1` (stereo partly specified) here?
**A.** > 100 µM

**Q.** How did the TGI turn out when `O=[N+]([O-])c1cccc(/C=N\NS(=O)(=O)c2ccc(Cl)cc2)c1O` was run?
**A.** > 100 µM

**Q.** For `CC1=C(C(=O)Nc2ccccc2C)C(c2ccc(Cl)c(Cl)c2)C(C(=O)Nc2ccccc2C)=C(C)N1`, which TGI is on record?
**A.** 43.2 µM

**Q.** Which TGI does the source give for `CCCCOC(=O)NC(=O)c1cn(CCCOC(=O)CCCCCCCCC(=O)OCCCn2cc(C(=O)NC(=O)OCCCC)c(=O)[nH]c2=O)c(=O)[nH]c1=O` here?
**A.** > 100 µM

**Q.** With `Cc1[nH]c2ccccc2c1C1Cc2ccccc2N1C(=O)/C=C\C(=O)O` (stereo unspecified) as the molecule, how does the TGI read?
**A.** 99.4 µM

**Q.** `CCOC(=O)c1cc(C#N)c(=O)n(/N=C(\C)c2ccncc2)c1O` was tested. Which GI50 did it give?
**A.** > 100 µM

**Q.** What about the TGI of the same molecule?
**A.** > 100 µM
